Reference: the supplement of paper PMC8617591

Legend:
[1] = tested on: Mycobacterium tuberculosis Erdman (autoluminescent); assay: total FIC50 (Loewe) at 50% inhibition, three-drug combination (log2); higher = more antagonistic
Procedure: (§1)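 DiaMOND equipotent three-drug combination dose responses (10 doses, 1.5- or 2-fold spacing, centred on IC90) against autoluminescent M. tuberculosis Erdman in 8 in vitro models. Read-out is OD600, or luminescence for the intracellular and dormancy models, normalised to untreated wells. Hill-fit Einf, AUC25 and GRinf are potency metrics; FIC50 and FIC90 are total Loewe fractional inhibitory concentrations as log2 (negative = synergy).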

[2] = tested on: Mycobacterium tuberculosis Erdman (autoluminescent); assay: total FIC90 (Loewe) at 90% inhibition, three-drug combination (log2); higher = more antagonistic
Procedure: as §1

[3] = tested on: Mycobacterium tuberculosis Erdman (autoluminescent); assay: Einf, fitted maximum growth inhibition of three-drug combination (fraction); higher = stronger maximal inhibition
Procedure: as §1

[4] = tested on: Mycobacterium tuberculosis Erdman (autoluminescent); assay: AUC25, normalised area under dose response up to IC25 (three-drug combination) (fraction (0-1)); higher = more potent at low dose
Procedure: as §1

[5] = tested on: Mycobacterium tuberculosis Erdman (autoluminescent); assay: GRinf, maximum normalised growth rate inhibition (three-drug combination) (unitless (-1 to 1)); higher = less effect (negative = killing)
Procedure: as §1

COc1nc2ccc(Br)cc2cc1[C@@H](c1ccccc1)[C@@](O)(CCN(C)C)c1cccc2ccccc12 [bedaquiline] + CC(=O)NC[C@H]1CN(c2ccc(N3CCOCC3)c(F)c2)C(=O)O1 [linezolid] + CO[C@H]1/C=C/O[C@@]2(C)Oc3c(C)c(O)c4c(O)c(c(/C=N/N5CCN(C6CCCC6)CC5)c(O)c4c3C2=O)NC(=O)/C(C)=C\C=C\[C@H](C)[C@H](O)[C@@H](C)[C@@H](O)[C@@H](C)[C@H](OC(C)=O)[C@@H]1C [rifapentine]
Conditions	AUC25, [4]	Einf, [3]	GRinf, [5]	total FIC50, [1]	total FIC90, [2]
in vitro model: acidic pH 5.7, time point: constant (~7 days, model-specific)	0.108	0.926	-0.244	0.654	–
in vitro model: acidic pH 5.7, time point: terminal (~4-5 doublings, model-specific)	0.0848	0.986	-0.26	0.615	0.662
in vitro model: intracellular J774, time point: constant = terminal	–	0.933	-0.098	–	-0.0532

Conditions	AUC25, [4]	Einf, [3]	GRinf, [5]	total FIC50, [1]	total FIC90, [2]
in vitro model: butyrate, time point: constant (~7 days, model-specific)	0.0812	0.921	-0.0254	0.437	-0.119
in vitro model: butyrate, time point: terminal (~4-5 doublings, model-specific)	0.0511	0.948	-0.00583	0.274	-0.145
in vitro model: cholesterol 0.05 mM, time point: constant (~7 days, model-specific)	0.127	0.761	-0.281	-0.0889	–
in vitro model: cholesterol 0.05 mM, time point: terminal (~4-5 doublings, model-specific)	0.121	0.93	-0.354	0.0726	0.0812
in vitro model: cholesterol-high 0.2 mM, time point: constant (~7 days, model-specific)	0.0873	0.998	-0.89	0.58	1.04
in vitro model: cholesterol-high 0.2 mM, time point: terminal (~4-5 doublings, model-specific)	0.1	1	-0.637	0.404	0.653
in vitro model: dormancy (butyrate + nitrate, low O2), time point: constant (~7 days, model-specific)	0.0901	0.933	0.0917	0.915	1.57
in vitro model: dormancy (butyrate + nitrate, low O2), time point: terminal (~4-5 doublings, model-specific)	0.0384	0.985	-0.095	0.965	0.698
in vitro model: standard 7H9 glycerol, time point: constant = terminal	0.0734	0.939	-0.014	0.253	0.00862
in vitro model: valerate, time point: constant (~7 days, model-specific)	0.0755	0.899	-0.197	0.659	–
in vitro model: valerate, time point: terminal (~4-5 doublings, model-specific)	0.0423	0.945	-0.0248	0.581	0.338

COc1nc2ccc(Br)cc2cc1[C@@H](c1ccccc1)[C@@](O)(CCN(C)C)c1cccc2ccccc12 [bedaquiline] + CC(=O)NC[C@H]1CN(c2ccc(N3CCOCC3)c(F)c2)C(=O)O1 [linezolid] + CO[C@H]1/C=C/O[C@@]2(C)Oc3c(C)c(O)c4c(O)c(c(/C=N/N5CCN(C)CC5)c(O)c4c3C2=O)NC(=O)/C(C)=C\C=C\[C@H](C)[C@H](O)[C@@H](C)[C@@H](O)[C@@H](C)[C@H](OC(C)=O)[C@@H]1C [rifampicin]
Conditions	AUC25, [4]	Einf, [3]	GRinf, [5]	total FIC50, [1]	total FIC90, [2]
in vitro model: acidic pH 5.7, time point: constant (~7 days, model-specific)	0.0983	0.934	-0.257	0.731	–
in vitro model: acidic pH 5.7, time point: terminal (~4-5 doublings, model-specific)	0.0798	0.99	-0.249	0.737	0.559
in vitro model: intracellular J774, time point: constant = terminal	–	0.93	-0.121	–	-0.0392

Conditions	AUC25, [4]	Einf, [3]	GRinf, [5]	total FIC50, [1]	total FIC90, [2]
in vitro model: butyrate, time point: constant (~7 days, model-specific)	0.0847	0.914	-0.0141	0.177	-0.362
in vitro model: butyrate, time point: terminal (~4-5 doublings, model-specific)	0.0706	0.955	-0.0153	0.082	-0.195
in vitro model: cholesterol 0.05 mM, time point: constant (~7 days, model-specific)	0.149	0.744	-0.202	-0.0465	–
in vitro model: cholesterol 0.05 mM, time point: terminal (~4-5 doublings, model-specific)	0.135	0.937	-0.321	4.18	-0.205
in vitro model: cholesterol-high 0.2 mM, time point: constant (~7 days, model-specific)	0.095	0.988	-0.655	0.47	0.612
in vitro model: cholesterol-high 0.2 mM, time point: terminal (~4-5 doublings, model-specific)	0.0921	1	-0.646	0.65	0.504
in vitro model: dormancy (butyrate + nitrate, low O2), time point: constant (~7 days, model-specific)	0.0823	0.941	0.177	0.618	0.781
in vitro model: dormancy (butyrate + nitrate, low O2), time point: terminal (~4-5 doublings, model-specific)	0.0706	0.982	-0.387	0.272	0.748
in vitro model: standard 7H9 glycerol, time point: constant = terminal	0.0714	0.938	-0.0288	0.312	-0.401
in vitro model: valerate, time point: constant (~7 days, model-specific)	0.0495	0.895	0.063	0.886	–
in vitro model: valerate, time point: terminal (~4-5 doublings, model-specific)	0.0389	0.953	-0.012	0.712	0.323

COc1nc2ccc(Br)cc2cc1[C@@H](c1ccccc1)[C@@](O)(CCN(C)C)c1cccc2ccccc12 [bedaquiline] + CC(=O)NC[C@H]1CN(c2ccc(N3CCOCC3)c(F)c2)C(=O)O1 [linezolid] + COc1c(N2C[C@@H]3CCCN[C@@H]3C2)c(F)cc2c(=O)c(C(=O)O)cn(C3CC3)c12 [moxifloxacin]
Conditions	AUC25, [4]	Einf, [3]	GRinf, [5]	total FIC50, [1]	total FIC90, [2]
in vitro model: acidic pH 5.7, time point: constant (~7 days, model-specific)	0.108	0.833	-0.483	0.265	–
in vitro model: acidic pH 5.7, time point: terminal (~4-5 doublings, model-specific)	0.0466	0.934	-0.2	0.43	-0.0182
in vitro model: intracellular J774, time point: constant = terminal	–	0.862	-0.242	–	1.32

Conditions	AUC25, [4]	Einf, [3]	GRinf, [5]	total FIC50, [1]	total FIC90, [2]
in vitro model: butyrate, time point: constant (~7 days, model-specific)	0.0949	0.936	-0.0894	0.691	0.695
in vitro model: butyrate, time point: terminal (~4-5 doublings, model-specific)	0.0643	0.968	-0.0714	0.693	0.691
in vitro model: cholesterol 0.05 mM, time point: constant (~7 days, model-specific)	0.131	0.758	-0.288	0.224	–
in vitro model: cholesterol 0.05 mM, time point: terminal (~4-5 doublings, model-specific)	0.144	0.966	-0.449	-0.0261	-0.532
in vitro model: cholesterol-high 0.2 mM, time point: constant (~7 days, model-specific)	0.11	0.992	-0.761	0.524	0.835
in vitro model: cholesterol-high 0.2 mM, time point: terminal (~4-5 doublings, model-specific)	0.108	1	-0.836	0.657	1.04
in vitro model: dormancy (butyrate + nitrate, low O2), time point: constant (~7 days, model-specific)	0.0831	0.921	0.149	0.916	0.891
in vitro model: dormancy (butyrate + nitrate, low O2), time point: terminal (~4-5 doublings, model-specific)	0.0363	0.989	-0.0826	1.62	1.09
in vitro model: standard 7H9 glycerol, time point: constant = terminal	0.0873	0.971	-0.102	0.152	0.63
in vitro model: valerate, time point: constant (~7 days, model-specific)	0.118	0.902	-0.144	0.407	–
in vitro model: valerate, time point: terminal (~4-5 doublings, model-specific)	0.0703	0.947	-0.0335	0.697	0.911
